Experimental data taken from ChEMBL document CHEMBL1201862, “PubChem BioAssay data set” (2004).
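96-well plates; 48 h exposure; 5 concentrations. Endpoints by linear interpolation between flanking doses. Not reached: highest tested concentration assigned. Abbreviation: GI50, concentration required for 50% inhibition of growth.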 Calls of active or inactive are those of the source. Rule as the data show it: active = GI50 up to about 1.1 µM and inactive = higher. Square brackets hold non-standard residues; d marks the D form. Peptide text beside a SMILES is read from it. * marks the point of attachment. X26 = COC1=CC(=O)N(C(=O)[C@@H](O*)C(C)C)[C@H]1Cc1ccccc1; NMeL = CN[C@@H](CC(C)C)C(=O)O; Hexanoyl = CCCCCC(=O)*

What was measured:
Assay in all cases: NCI-60 cell line screen, 48 h
BT-549 = test system: BT-549
COLO 205 = test system: COLO 205
EKVX = test system: EKVX
HCT-15 = test system: HCT-15
HOP-92 = test system: HOP-92
IGROV-1 = test system: IGROV-1
KM12 = test system: KM12
MCF7 = test system: MCF7
MDA-MB-231 = test system: MDA-MB-231
MOLT-4 = test system: MOLT-4
Malme-3M = test system: Malme-3M
NCI-H522 = test system: NCI-H522
OVCAR-3 = test system: OVCAR-3
OVCAR-4 = test system: OVCAR-4
PC-3 = test system: PC-3
RXF 393 = test system: RXF 393
SF-268 = test system: SF-268
SF-295 = test system: SF-295
T47D = test system: T47D
SNB-19 = test system: SNB-19

Measured: GI50

CCCCCC(=O)N[C@H](C(=O)N[C@H](C(=O)N(C)[C@@H](CC(C)C)C(=O)N1CCC[C@H]1C(=O)N1CCC[C@H]1C(=O)O[C@H](C(=O)N1C(=O)C=C(OC)[C@@H]1Cc1ccccc1)C(C)C)C(C)C)C(C)C (Hexanoyl-VV[NMeL]PP-X26)
inactive: BT-549 83.4 µM | COLO 205 32.5 µM | EKVX > 100 µM | HOP-92 36.1 µM | IGROV-1 > 44.2 µM | KM12 > 74.3 µM | MCF7 25.9 µM | MDA-MB-231 > 64.9 µM | MOLT-4 1.9 µM | Malme-3M > 20.5 µM | NCI-H522 > 100 µM | OVCAR-3 > 100 µM | OVCAR-4 > 76.9 µM | PC-3 27.2 µM | RXF 393 10.1 µM | SF-268 > 41.9 µM | SF-295 > 100 µM | T47D 70.8 µM
> 43.4 µM: HCT-15

CNc1nc(=S)[nH]c2sc3c(c12)CCCC3
inactive: BT-549 > 75 µM | COLO 205 > 75 µM | EKVX 45.1 µM | IGROV-1 > 75 µM | KM12 > 75 µM | MCF7 > 75 µM | MDA-MB-231 > 75 µM | MOLT-4 > 75 µM | Malme-3M > 75 µM | NCI-H522 > 75 µM | OVCAR-3 > 75 µM | OVCAR-4 > 75 µM | PC-3 > 75 µM | RXF 393 > 75 µM | SF-268 > 75 µM | SF-295 > 75 µM | SNB-19 > 75 µM | T47D > 75 µM
> 75 µM: HCT-15

O=c1c(C(c2ccc(C(c3c(O)oc4cc(O)ccc4c3=O)c3c(O)oc4cc(O)ccc4c3=O)cc2)c2c(O)oc3cc(O)ccc3c2=O)c(O)oc2cc(O)ccc12
inactive: BT-549 > 100 µM | COLO 205 53.3 µM | EKVX > 100 µM | HOP-92 > 100 µM | IGROV-1 > 100 µM | MCF7 > 100 µM | MDA-MB-231 > 100 µM | MOLT-4 > 100 µM | Malme-3M > 100 µM | OVCAR-3 > 100 µM | OVCAR-4 93.1 µM | PC-3 > 100 µM | RXF 393 > 100 µM | SF-268 > 100 µM | SF-295 > 100 µM | T47D > 100 µM
> 100 µM: HCT-15

CC(=O)Nc1ncc2c(n1)-c1ccccc1OC2c1ccccc1 (stereo not drawn)
> 100 µM: HCT-15
inactive: BT-549 27.7 µM | COLO 205 > 100 µM | EKVX 61 µM | HOP-92 14.8 µM | IGROV-1 46.5 µM | KM12 > 100 µM | MCF7 > 100 µM | MDA-MB-231 21.7 µM | MOLT-4 > 100 µM | NCI-H522 37.7 µM | OVCAR-3 > 100 µM | OVCAR-4 18.5 µM | PC-3 > 100 µM | RXF 393 17.1 µM | SF-268 15.4 µM | SF-295 32.2 µM | SNB-19 20.8 µM | T47D 24.7 µM

Cc1ccc(S(=O)(=O)NCCN(CCNS(=O)(=O)c2ccc(C)cc2)S(=O)(=O)c2ccc(C)cc2)cc1
inactive: BT-549 > 100 µM | COLO 205 > 100 µM | EKVX 85.1 µM | IGROV-1 84.1 µM | KM12 > 100 µM | MCF7 81.7 µM | MDA-MB-231 > 100 µM | MOLT-4 > 100 µM | Malme-3M 15.4 µM | NCI-H522 > 100 µM | OVCAR-3 > 100 µM | OVCAR-4 6.53 µM | PC-3 > 100 µM | RXF 393 87.9 µM | SF-268 47.4 µM | SF-295 > 100 µM | SNB-19 46.7 µM | T47D > 100 µM
> 100 µM: HCT-15
